Laboratory results from PubChem BioAssay AID2060900 (Molecular Pharmacology Branch, DTP, NCI, 2025).

Test system: 521955-158-R2-J5-PDC complex spheroids, viability
Test: Anticancer human tumor 521955-158-R2-J5-PDC patient-derived pancreatic carcinoma cell line growth inhibition [RAS]
Conditions: for IC50: curve of first compound; for viability, T/C: stronger effect = lower value
From the text: RAS pathway inhibitors in Combinations in Complex Spheroids
A high-throughput screen of multi-cell type tumor spheroids was designed to identify active combinations of RAS pathway inhibitors and targeted small molecules. Complex spheroids include a stromal component modeled by human endothelial cells (HUVEC) and fibroblasts modeled by human mesenchymal stem cells (MSCs). The concentration ranges selected for each drug and investigational agent were based upon clinically achievable concentrations if the clinical Cmax of the agent was known.
Compounds. The drugs and investigational agents: abemaciclib (NSC768073), cobimetinib (NSC768068), divarasib (GDC6063, NSC841802), docetaxel (NSC628503), GDC-1971 (RLY-1971, NSC841576), gemcitabine (NSC613327), inavolisib (NSC800729), ipatasertib (NSC767898), KB-0742 (NSC834161), MRTX-1133 (NSC836407), osimertinib (NSC779217), RMC-4630 (NSC839698), RMC-6236 (NSC851965), RMC-6291 (NSC852671), Ro-3306 (NSC812927), sapanisertib (NSC764658), SN-38 (NSC673596), staurosporine (NSC755774), SY5609 (NSC837396), and tovorafenib (DAY101, NSC766906), were obtained from the National Cancer Institute (NCI) Developmental Therapeutics Program Chemical Repository. The FDA-approved anticancer drug set is available from the NCI Developmental Therapeutics Program. […] The stock solutions were prepared in dimethyl sulfoxide (DMSO, Sigma-Aldrich, St. Louis, MO, cat. D2650) at 800-fold the tested concentration and stored at -70 degrees C prior to their use. All drugs and investigational agents were tested over a range starting from a high concentration at or near the clinical Cmax and decreasing in half-log increments. If the clinical Cmax for an agent had not been determined, the highest concentration tested was 10 microM.
Cell Culture. All cells were maintained in an incubator at 37 degrees C and 5% CO2 with 95% humidity. The PDC lines were cultured according to standard operating procedures established by the NCI PDMR. All PDCs were thawed and cultured in Matrigel-coated flasks prepared with a working solution of 1X Ham's F-12 nutrient mix, without supplementation (Invitrogen, Waltham, MA, cat. 11765054), 100 U/mL penicillin-streptomycin (Invitrogen, cat. 15140122), and 2.5% Matrigel (Corning Inc., Corning, NY, cat. 354248) for the first three passages. The 362531-283-R-J2-PDC and 782815-120-R-J1-PDC lines were cultured in 6C/Colon 1B media, which includes advanced DMEM/F-12 (Thermo Fisher Scientific, cat. 12634028), 10 mM HEPES (Thermo Fisher Scientific, cat. 15630080), 1X GlutaMAX supplement (Thermo Fisher Scientific, cat. 35050061), 0.1 mg/mL primocin (InvivoGen, San Diego, CA, cat. ant-pm-2), 10% defined fetal bovine serum, heat inactivated (HyClone Laboratories Inc., Logan, UT, cat. SH30070.03HI), 50% L-WRN conditioned media (ATCC, cat. CRL-3276), 1.25 mM N-Acetyl-L-cysteine (Sigma-Aldrich, cat. A9165), 10 mM nicotinamide (Sigma-Aldrich, cat. N0636), 1X B-27 supplement (Thermo Fisher Scientific, cat. 17504044), 1X N-2 supplement (Thermo Fisher Scientific, cat. 17502048), 50 ng/mL human EGF (Thermo Fisher Scientific, cat. PHG0311), and 10 microM Y-27632 dihydrochloride (Tocris Bioscience, cat. 1254). The K12877-001-R-J1-PDC line was cultured in 6I media, which includes all 6C/Colon 1B media plus 10 ng/mL human FGF-10 (PeproTech, cat. 100-26), 1 ng/mL human FGF-2 (PeproTech, cat. 100-18B), 1 µM prostaglandin E2 (Tocris Bioscience, cat. 2296), […] hydrocortisone (Sigma-Aldrich, cat. H4001), and […] bovine insulin (Sigma-Aldrich, cat. I6634). The K86415-001-R-J1-PDC line was cultured in 6D media, which includes all 6C/Colon 1B media components minus the L-WRN conditioned media. The 485176-168-R4-J1-PDC was cultured in PANC media, which includes all 6C/Colon 1B media plus 100 ng/mL human FGF-10 (PeproTech, cat. 100-26), 500 nM SB-431542 (Selleckchem, cat. S1067), and 10 nM gastrin (Tocris Bioscience, cat. 3006). […]

[1] = second compound 0.000949 µM, first compound 0.0316 µM
[2] = second compound 0.000949 µM, first compound 0.1 µM
[3] = second compound 0.000949 µM, first compound 0.316 µM
[4] = second compound 0.000949 µM, first compound 1 µM
[5] = second compound 0.003 µM, first compound 0.0316 µM
[6] = second compound 0.003 µM, first compound 0.1 µM
[7] = second compound 0.003 µM, first compound 0.316 µM
[8] = second compound 0.003 µM, first compound 1 µM
[9] = second compound 0.00949 µM, first compound 0.0316 µM
[10] = second compound 0.00949 µM, first compound 0.1 µM
[11] = second compound 0.00949 µM, first compound 0.316 µM
[12] = second compound 0.00949 µM, first compound 1 µM
[13] = second compound 0.03 µM, first compound 0.0316 µM
[14] = second compound 0.03 µM, first compound 0.1 µM
[15] = second compound 0.03 µM, first compound 0.316 µM
[16] = second compound 0.03 µM, first compound 1 µM
[17] = second compound 0.0949 µM, first compound 0.0316 µM
[18] = second compound 0.0949 µM, first compound 0.1 µM
[19] = second compound 0.0949 µM, first compound 0.316 µM
[20] = second compound 0.0949 µM, first compound 1 µM
[21] = second compound 0.3 µM, first compound 0.0316 µM
[22] = second compound 0.3 µM, first compound 0.1 µM
[23] = second compound 0.3 µM, first compound 0.316 µM
[24] = second compound 0.3 µM, first compound 1 µM
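Further: compound exposure lasted seven days before the viability read.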
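Wherever viability, T/C is given: spheroids also contain HUVEC endothelial cells and mesenchymal stem cells as stroma.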

Molecule `C=CC(=O)Nc1cc(Nc2nccc(-c3cn(C)c4ccccc34)n2)c(OC)cc1N(C)CCN(C)C` + CCn1c(-c2cccnc2C(C)OC)c2c3cc(ccc31)N1CCOC(CC(NC(=O)C(C(C)C)N(C)C(=O)C3(F)CCN(C(=O)C#CC(C)(C)N(C)C)CC3)C(=O)N3CCCC(N3)C(=O)OCC(C)(C)C2)C1 has an IC50 (second compound 0.000949 µM) of 0.504 µM, an IC50 (second compound 0.003 µM) of 0.755 µM and an IC50 (second compound 0.00949 µM) of 0.493 µM. For the same molecule, the IC50 (second compound 0.03 µM) was 0.416 µM, the IC50 (second compound 0.0949 µM) was 0.441 µM and the IC50 (second compound 0.3 µM) was 0.176 µM. For the same molecule, the viability, T/C (second compound 0.000949 µM, first compound 0.00316 µM) was 89.9%, the viability, T/C (second compound 0.000949 µM, first compound 0.01 µM) was 84.1% and the viability, T/C [1] was 84.1%. The viability, T/C [2] was 72.6%, the viability, T/C [3] was 59% and the viability, T/C [4] was 37.1%. It also gave a viability, T/C (second compound 0.003 µM, first compound 0.00316 µM) of 110%, a viability, T/C (second compound 0.003 µM, first compound 0.01 µM) of 82.6% and a viability, T/C [5] of 71.8%. The viability, T/C [6] was 65.3%, the viability, T/C [7] was 59.2% and the viability, T/C [8] was 44.1%. The viability, T/C (second compound 0.00949 µM, first compound 0.00316 µM) was 101%, the viability, T/C (second compound 0.00949 µM, first compound 0.01 µM) was 91.5% and the viability, T/C [9] was 88.6%. It also gave a viability, T/C [10] of 75.4%, a viability, T/C [11] of 61.4% and a viability, T/C [12] of 34.1%. For the same molecule, the viability, T/C (second compound 0.03 µM, first compound 0.00316 µM) was 88.6%, the viability, T/C (second compound 0.03 µM, first compound 0.01 µM) was 79.2% and the viability, T/C [13] was 80%. It also gave a viability, T/C [14] of 70.8%, a viability, T/C [15] of 51.8% and a viability, T/C [16] of 41%. It also gave a viability, T/C (second compound 0.0949 µM, first compound 0.00316 µM) of 86.3%, a viability, T/C (second compound 0.0949 µM, first compound 0.01 µM) of 95.8% and a viability, T/C [17] of 70%. For the same molecule, the viability, T/C [18] was 70.2%, the viability, T/C [19] was 56.6% and the viability, T/C [20] was 36.9%. For the same molecule, the viability, T/C (second compound 0.3 µM, first compound 0.00316 µM) was 70.2%, the viability, T/C (second compound 0.3 µM, first compound 0.01 µM) was 79.2% and the viability, T/C [21] was 72%. It also gave a viability, T/C [22] of 55.4%, a viability, T/C [23] of 45.3% and a viability, T/C [24] of 36.9%.
In the case of `CCC(CC)c1cc(NC2CCC(N)C2)n2nccc2n1` (centres undefined) + CCn1c(-c2cccnc2C(C)OC)c2c3cc(ccc31)N1CCOC(CC(NC(=O)C(C(C)C)N(C)C(=O)C3(F)CCN(C(=O)C#CC(C)(C)N(C)C)CC3)C(=O)N3CCCC(N3)C(=O)OCC(C)(C)C2)C1, the IC50 (second compound 0.000949 µM) is reported as 1.9 µM, the IC50 (second compound 0.003 µM) is reported as 1.91 µM and the IC50 (second compound 0.00949 µM) is reported as 1.96 µM. For the same molecule, the IC50 (second compound 0.03 µM) was 1.93 µM, the IC50 (second compound 0.0949 µM) was 1.73 µM and the IC50 (second compound 0.3 µM) was 1.7 µM. It also gave a viability, T/C [1] of 93.9%, a viability, T/C [2] of 92.6% and a viability, T/C [3] of 104%. The viability, T/C [4] was 122%, the viability, T/C (second compound 0.000949 µM, first compound 3.16 µM) was 6.03% and the viability, T/C (second compound 0.000949 µM, first compound 10 µM) was 9.22%. It also gave a viability, T/C [5] of 94.6%, a viability, T/C [6] of 108% and a viability, T/C [7] of 106%. For the same molecule, the viability, T/C [8] was 116%, the viability, T/C (second compound 0.003 µM, first compound 3.16 µM) was 5.99% and the viability, T/C (second compound 0.003 µM, first compound 10 µM) was 6.76%. It also gave a viability, T/C [9] of 113%, a viability, T/C [10] of 97.7% and a viability, T/C [11] of 116%. It also gave a viability, T/C [12] of 117%, a viability, T/C (second compound 0.00949 µM, first compound 3.16 µM) of 7.29% and a viability, T/C (second compound 0.00949 µM, first compound 10 µM) of 6.73%. It also gave a viability, T/C [13] of 99.2%, a viability, T/C [14] of 101% and a viability, T/C [15] of 105%. For the same molecule, the viability, T/C [16] was 117%, the viability, T/C (second compound 0.03 µM, first compound 3.16 µM) was 8.41% and the viability, T/C (second compound 0.03 µM, first compound 10 µM) was 5.64%. For the same molecule, the viability, T/C [17] was 83.1%, the viability, T/C [18] was 75.6% and the viability, T/C [19] was 97.4%. It also gave a viability, T/C [20] of 100%, a viability, T/C (second compound 0.0949 µM, first compound 3.16 µM) of 6.48% and a viability, T/C (second compound 0.0949 µM, first compound 10 µM) of 6.71%. The viability, T/C [21] was 84.9%, the viability, T/C [22] was 75.4% and the viability, T/C [23] was 88.1%. It also gave a viability, T/C [24] of 88.6%, a viability, T/C (second compound 0.3 µM, first compound 3.16 µM) of 9.96% and a viability, T/C (second compound 0.3 µM, first compound 10 µM) of 5.87%.
